Experiments:
Test in all cases: In vitro antibacterial evaluation: minimum inhibitory concentration (MIC), broth dilution method
Type in all cases: cell-based
Conditions in all cases: 18 hours at 35° C.
Enterococcus sp. = test system: Enterococcus sp.
Outline: (§1)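 NCCLS M7-A2 broth dilution with Mueller-Hinton II, testing 64-0.06 μg/mL antibiotic against 5×10^5 CFU/mL inocula. Test strains include recent methicillin-, penicillin- or vancomycin-resistant clinical isolates. MIC is the lowest concentration preventing growth.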

Escherichia coli = test system: Escherichia coli
Outline: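 An MIC is reported for each organism as the least concentration giving inhibition, using broth dilution over 64-0.06 μg/mL with a 5×10^5 CFU/mL inoculum.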

Staphylococcus sp. = test system: Staphylococcus sp.
Outline: as §1

Streptococcus sp. = test system: Streptococcus sp.
Outline: as §1

α-O-[(Heptylamino)carbonyl]-cyclo(glycyl-β-methylphenylalanyl-O-(4-O-hexopyranosylhexopyranosyl)tyrosyl-3-(2-iminoimidazolidin-4-yl)seryl-3-(3-hexopyranosyl-2-iminoimidazolidin-4-yl)serylseryl] [Example 253]
32 µg/mL: MIC Enterococcus faecium (GC 4557) (Enterococcus sp.; Enterococcus faecium (GC 4557)) | MIC Enterococcus faecium (GC 4557) (Enterococcus sp.; broth dilution, strain GC 4557) | MIC Coagulase Negative Staphylococcus (GC 6257) (Staphylococcus sp.; Coagulase Negative Staphylococcus (GC 6257)) | MIC Coagulase Negative Staphylococcus (GC 6257) (Staphylococcus sp.; broth dilution, strain GC 6257) | MIC Streptococcus agalactiae (GC 4564) (Streptococcus sp.; Streptococcus agalactiae (GC 4564)) | MIC Streptococcus pyogenes (GC 4563) (Streptococcus sp.; Streptococcus pyogenes (GC 4563)) | MIC Streptococcus pyogenes (GC 4563) (Streptococcus sp.; broth dilution, strain GC 4563) | MIC Streptococcus agalactiae (GC 4564) (Streptococcus sp.; broth dilution, strain GC 4564)
8 µg/mL: MIC Streptococcus pneumoniae (GC 1894) (Streptococcus sp.; Streptococcus pneumoniae (GC 1894)) | MIC Streptococcus pneumoniae (GC 1894) (Streptococcus sp.; broth dilution, strain GC 1894)
16 µg/mL: MIC Streptococcus pneumoniae (ATCC 6301) (Streptococcus sp.; Streptococcus pneumoniae (ATCC 6301)) | MIC Streptococcus pneumoniae (GC 4565) (Streptococcus sp.; Streptococcus pneumoniae (GC 4565)) | MIC Streptococcus pneumoniae (ATCC 6301) (Streptococcus sp.; broth dilution, strain ATCC 6301) | MIC Streptococcus pneumoniae (GC 4565) (Streptococcus sp.; broth dilution, strain GC 4565)
64 µg/mL: MIC Enterococcus avium (GC 4558) (Enterococcus sp.; Enterococcus avium (GC 4558)) | MIC Enterococcus avium (GC 4558) (Enterococcus sp.; broth dilution, strain GC 4558) | MIC Coagulase Negative Staphylococcus (GC 4547) (Staphylococcus sp.; Coagulase Negative Staphylococcus (GC 4547)) | MIC Coagulase Negative Staphylococcus (GC 4548) (Staphylococcus sp.; Coagulase Negative Staphylococcus (GC 4548)) | MIC Coagulase Negative Staphylococcus (GC 4549) (Staphylococcus sp.; Coagulase Negative Staphylococcus (GC 4549)) | MIC Staphylococcus aureus (GC 4541) (Staphylococcus sp.; Staphylococcus aureus (GC 4541)) | MIC Staphylococcus aureus (GC 4545) (Staphylococcus sp.; Staphylococcus aureus (GC 4545)) | MIC Staphylococcus aureus-SMITH (GC 4543) (Staphylococcus sp.; Staphylococcus aureus-SMITH (GC 4543)) | MIC Staphylococcus haemolyticus (GC 4546) (Staphylococcus sp.; Staphylococcus haemolyticus (GC 4546)) | MIC Staphylococcus aureus (GC 4541) (Staphylococcus sp.; broth dilution, strain GC 4541) | MIC Staphylococcus aureus-SMITH (GC 4543) (Staphylococcus sp.; broth dilution, strain GC 4543) | MIC Staphylococcus aureus (GC 4545) (Staphylococcus sp.; broth dilution, strain GC 4545) | MIC Staphylococcus haemolyticus (GC 4546) (Staphylococcus sp.; broth dilution, strain GC 4546) | MIC Coagulase Negative Staphylococcus (GC 4547) (Staphylococcus sp.; broth dilution, strain GC 4547) | MIC Coagulase Negative Staphylococcus (GC 4548) (Staphylococcus sp.; broth dilution, strain GC 4548) | MIC Coagulase Negative Staphylococcus (GC 4549) (Staphylococcus sp.; broth dilution, strain GC 4549)
2 µg/mL: MIC Escherichia coli (GC 4560) (Escherichia coli; Escherichia coli (GC 4560))
>64 µg/mL: MIC Enterococcus faecalis (ATCC 29212) (Enterococcus sp.; Enterococcus faecalis (ATCC 29212)) | MIC Enterococcus faecalis (GC 2242) (Enterococcus sp.; Enterococcus faecalis (GC 2242)) | MIC Enterococcus faecalis (GC 2691) (Enterococcus sp.; Enterococcus faecalis (GC 2691)) | MIC Enterococcus faecalis (GC 3059) (Enterococcus sp.; Enterococcus faecalis (GC 3059)) | MIC Enterococcus faecalis (GC 4552) (Enterococcus sp.; Enterococcus faecalis (GC 4552)) | MIC Enterococcus faecalis (GC 4553) (Enterococcus sp.; Enterococcus faecalis (GC 4553)) | MIC Enterococcus faecalis (GC 4554) (Enterococcus sp.; Enterococcus faecalis (GC 4554)) | MIC Enterococcus faecalis (GC 6189) (Enterococcus sp.; Enterococcus faecalis (GC 6189)) | MIC Enterococcus faecium (GC 2243) (Enterococcus sp.; Enterococcus faecium (GC 2243)) | MIC Enterococcus faecium (GC 4556) (Enterococcus sp.; Enterococcus faecium (GC 4556)) | MIC Enterococcus faecalis (ATCC 29212) (Enterococcus sp.; broth dilution, strain ATCC 29212) | MIC Enterococcus faecalis (GC 2242) (Enterococcus sp.; broth dilution, strain GC 2242) | MIC Enterococcus faecium (GC 2243) (Enterococcus sp.; broth dilution, strain GC 2243) | MIC Enterococcus faecalis (GC 2691) (Enterococcus sp.; broth dilution, strain GC 2691) | MIC Enterococcus faecalis (GC 3059) (Enterococcus sp.; broth dilution, strain GC 3059) | MIC Enterococcus faecalis (GC 4552) (Enterococcus sp.; broth dilution, strain GC 4552) | MIC Enterococcus faecalis (GC 4553) (Enterococcus sp.; broth dilution, strain GC 4553) | MIC Enterococcus faecalis (GC 4554) (Enterococcus sp.; broth dilution, strain GC 4554) | MIC Enterococcus faecium (GC 4556) (Enterococcus sp.; broth dilution, strain GC 4556) | MIC Enterococcus faecalis (GC 6189) (Enterococcus sp.; broth dilution, strain GC 6189) | MIC Escherichia coli (ATCC 25922) (Escherichia coli; Escherichia coli (ATCC 25922)) | MIC Escherichia coli (GC 4559) (Escherichia coli; Escherichia coli (GC 4559)) | MIC Coagulase Negative Staphylococcus (GC 4551) (Staphylococcus sp.; Coagulase Negative Staphylococcus (GC 4551)) | MIC Staphylococcus aureus (ATCC 29213) (Staphylococcus sp.; Staphylococcus aureus (ATCC 29213)) | MIC Staphylococcus aureus (GC 1131) (Staphylococcus sp.; Staphylococcus aureus (GC 1131)) | MIC Staphylococcus aureus (GC 3051) (Staphylococcus sp.; Staphylococcus aureus (GC 3051)) | MIC Staphylococcus aureus (GC 3053) (Staphylococcus sp.; Staphylococcus aureus (GC 3053)) | MIC Staphylococcus aureus (GC 4542) (Staphylococcus sp.; Staphylococcus aureus (GC 4542)) | MIC Staphylococcus aureus (GC 4544) (Staphylococcus sp.; Staphylococcus aureus (GC 4544)) | MIC Staphylococcus aureus (ATCC 29213) (Staphylococcus sp.; broth dilution, strain ATCC 29213) | MIC Staphylococcus aureus (GC 1131) (Staphylococcus sp.; broth dilution, strain GC 1131) | MIC Staphylococcus aureus (GC 3051) (Staphylococcus sp.; broth dilution, strain GC 3051) | MIC Staphylococcus aureus (GC 3053) (Staphylococcus sp.; broth dilution, strain GC 3053) | MIC Staphylococcus aureus (GC 4542) (Staphylococcus sp.; broth dilution, strain GC 4542) | MIC Staphylococcus aureus (GC 4544) (Staphylococcus sp.; broth dilution, strain GC 4544) | MIC Coagulase Negative Staphylococcus (GC 4551) (Staphylococcus sp.; broth dilution, strain GC 4551)

From patent publication US8247211B2, “Glycopeptide antibiotics” (American Cyanamid Company, priority 2001, dated 2012)
